According to ChEMBL document CHEMBL4715697, “Synthesis and biological activity of benzamide DNA minor groove binders” (2016):

Columns and labels:
Type in all cases: functional
[1] = system: NCI-H522; assay: Growth inhibition of human NCI-H522 cells assessed as cell growth at 1 uM incubated for 48 hrs by sulforhodamine B assay relative to control; settings: read-out: Activity
[2] = system: NCI-H522; assay: Growth inhibition of human NCI-H522 cells incubated for 48 hrs by sulforhodamine B assay
[3] = system: MDA-MB-468; assay: Growth inhibition of human MDA-MB-468 cells incubated for 48 hrs by sulforhodamine B assay
[4] = system: NCI-H226; assay: Growth inhibition of human NCI-H226 cells assessed as cell growth at 0.01 uM incubated for 48 hrs by sulforhodamine B assay relative to control; settings: read-out: Activity
[5] = system: MCF7; assay: Growth inhibition of human MCF7 cells assessed as cell growth at 0.1 uM incubated for 48 hrs by sulforhodamine B assay relative to control; settings: read-out: Activity
[6] = system: RXF 393; assay: Growth inhibition of human RXF 393 cells assessed as cell growth at 1 uM incubated for 48 hrs by sulforhodamine B assay relative to control; settings: read-out: Activity
[7] = system: UO-31; assay: Growth inhibition of human UO-31 cells assessed as cell growth at 0.01 uM incubated for 48 hrs by sulforhodamine B assay relative to control; settings: read-out: Activity
[8] = system: LOX IMVI; assay: Growth inhibition of human LOX IMVI cells incubated for 48 hrs by sulforhodamine B assay
[9] = system: NCI/ADR-RES; assay: Growth inhibition of human NCI/ADR-RES cells assessed as cell growth at 0.01 uM incubated for 48 hrs by sulforhodamine B assay relative to control; settings: read-out: Activity
[10] = system: SNB-75; assay: Growth inhibition of human SNB-75 cells assessed as cell growth at 0.1 uM incubated for 48 hrs by sulforhodamine B assay relative to control; settings: read-out: Activity
[11] = system: PC-3; assay: Growth inhibition of human PC-3 cells incubated for 48 hrs by sulforhodamine B assay
[12] = system: NCI-H460; assay: Growth inhibition of human NCI-H460 cells assessed as cell growth at 1 uM incubated for 48 hrs by sulforhodamine B assay relative to control; settings: read-out: Activity
[13] = system: HCT-15; assay: Growth inhibition of human HCT-15 cells assessed as cell growth at 100 uM incubated for 48 hrs by sulforhodamine B assay relative to control; settings: read-out: Activity
[14] = system: HCT-116; assay: Growth inhibition of human HCT-116 cells assessed as cell growth at 1 uM incubated for 48 hrs by sulforhodamine B assay relative to control; settings: read-out: Activity
[15] = system: MDA-MB-231; assay: Growth inhibition of human MDA-MB-231 cells assessed as cell growth at 0.01 uM incubated for 48 hrs by sulforhodamine B assay relative to control; settings: read-out: Activity
[16] = system: SF-268; assay: Growth inhibition of human SF-268 cells assessed as cell growth at 1 uM incubated for 48 hrs by sulforhodamine B assay relative to control; settings: read-out: Activity
[17] = system: SNB-75; assay: Growth inhibition of human SNB-75 cells assessed as cell growth at 100 uM incubated for 48 hrs by sulforhodamine B assay relative to control; settings: read-out: Activity
[18] = system: COLO 205; assay: Growth inhibition of human COLO 205 cells assessed as cell growth at 1 uM incubated for 48 hrs by sulforhodamine B assay relative to control; settings: read-out: Activity
[19] = system: UACC-257; assay: Growth inhibition of human UACC-257 cells assessed as cell growth at 1 uM incubated for 48 hrs by sulforhodamine B assay relative to control; settings: read-out: Activity
[20] = system: SK-MEL-28; assay: Growth inhibition of human SK-MEL-28 cells assessed as cell growth at 1 uM incubated for 48 hrs by sulforhodamine B assay relative to control; settings: read-out: Activity
[21] = system: SF-295; assay: Growth inhibition of human SF-295 cells assessed as cell growth at 1 uM incubated for 48 hrs by sulforhodamine B assay relative to control; settings: read-out: Activity
[22] = system: UACC-62; assay: Growth inhibition of human UACC-62 cells assessed as cell growth at 0.1 uM incubated for 48 hrs by sulforhodamine B assay relative to control; settings: read-out: Activity
[23] = system: SW-620; assay: Growth inhibition of human SW-620 cells assessed as cell growth at 0.01 uM incubated for 48 hrs by sulforhodamine B assay relative to control; settings: read-out: Activity
[24] = system: OVCAR-8; assay: Growth inhibition of human OVCAR-8 cells incubated for 48 hrs by sulforhodamine B assay
[25] = system: NCI/ADR-RES; assay: Growth inhibition of human NCI/ADR-RES cells assessed as cell growth at 100 uM incubated for 48 hrs by sulforhodamine B assay relative to control; settings: read-out: Activity
[26] = system: A498; assay: Growth inhibition of human A498 cells assessed as cell growth at 0.1 uM incubated for 48 hrs by sulforhodamine B assay relative to control; settings: read-out: Activity
[27] = system: EKVX; assay: Growth inhibition of human EKVX cells assessed as cell growth at 1 uM incubated for 48 hrs by sulforhodamine B assay relative to control; settings: read-out: Activity
[28] = system: NCI/ADR-RES; assay: Growth inhibition of human NCI/ADR-RES cells assessed as cell growth at 0.1 uM incubated for 48 hrs by sulforhodamine B assay relative to control; settings: read-out: Activity
[29] = system: OVCAR-4; assay: Growth inhibition of human OVCAR-4 cells assessed as cell growth at 1 uM incubated for 48 hrs by sulforhodamine B assay relative to control; settings: read-out: Activity
[30] = system: TK-10; assay: Growth inhibition of human TK-10 cells assessed as cell growth at 0.01 uM incubated for 48 hrs by sulforhodamine B assay relative to control; settings: read-out: Activity
[31] = system: HL-60(TB); assay: Growth inhibition of human HL-60(TB) cells incubated for 48 hrs by sulforhodamine B assay
[32] = system: MDA-MB-468; assay: Growth inhibition of human MDA-MB-468 cells assessed as cell growth at 0.01 uM incubated for 48 hrs by sulforhodamine B assay relative to control; settings: read-out: Activity
[33] = system: MDA-MB-231; assay: Growth inhibition of human MDA-MB-231 cells assessed as cell growth at 1 uM incubated for 48 hrs by sulforhodamine B assay relative to control; settings: read-out: Activity
[34] = system: LOX IMVI; assay: Growth inhibition of human LOX IMVI cells assessed as cell growth at 0.1 uM incubated for 48 hrs by sulforhodamine B assay relative to control; settings: read-out: Activity
[35] = system: SNB-19; assay: Growth inhibition of human SNB-19 cells assessed as cell growth at 0.01 uM incubated for 48 hrs by sulforhodamine B assay relative to control; settings: read-out: Activity
[36] = read-out: LC50 (the source's name)
[37] = read-out: pLC50 (the source's name) (converted)

## CC(=O)Nc1cc(CO[Si](C)(C)C(C)(C)C)cc(NC(=O)c2ccc(C(=O)Nc3cccc(NC(=O)CCCN(C)C)c3)cc2)c1
[1]
  growth at 1 µM: 86%
[2]; read-out: GI50
  GI50: > 75 µM
[2]; [36]
  CC50: > 75 µM
[2]; read-out: TGI
  TGI: > 75 µM
[2]; read-out: pGI50 (converted)
  GI50: > 75.9 µM
[2]; [37]
  CC50: > 75.9 µM
[2]; read-out: pTGI
  TGI: > 75.9 µM
[3]; read-out: GI50
  GI50: > 75 µM
[3]; [36]
  CC50: > 75 µM
[3]; read-out: TGI
  TGI: > 75 µM
[3]; read-out: pGI50 (converted)
  GI50: > 75.9 µM
[3]; [37]
  CC50: > 75.9 µM
[3]; read-out: pTGI
  TGI: > 75.9 µM
[4]
  growth at 0.01 µM: 96%
[5]
  growth at 0.1 µM: 101%
[6]
  growth at 1 µM: 106%
[7]
  growth at 0.01 µM: 83%
[8]; read-out: GI50
  GI50: > 75 µM
[8]; read-out: LC50
  LC50 (concentration giving 50% cell kill): > 75 µM
[8]; read-out: TGI
  TGI: > 75 µM
[8]; read-out: pGI50 (converted)
  GI50: > 75.9 µM
[8]; read-out: pLC50 (converted)
  LC50 (concentration giving 50% cell kill): > 75.9 µM
[8]; read-out: pTGI
  TGI: > 75.9 µM
[9]
  growth at 0.01 µM: 103%
[10]
  growth at 0.1 µM: 83%
[11]; read-out: GI50
  GI50: > 75 µM
[11]; [36]
  CC50: > 75 µM
[11]; read-out: TGI
  TGI: > 75 µM
[11]; read-out: pGI50 (converted)
  GI50: > 75.9 µM
[11]; [37]
  CC50: > 75.9 µM
[11]; read-out: pTGI
  TGI: > 75.9 µM
[12]
  growth at 1 µM: 99%
[13]
  growth at 100 µM: 82%
[14]
  growth at 1 µM: 101%
[15]
  growth at 0.01 µM: 102%
[16]
  growth at 1 µM: 101%
[17]
  growth at 100 µM: 50%
[18]
  growth at 1 µM: 109%
[19]
  growth at 1 µM: 89%
[20]
  growth at 1 µM: 98%
[21]
  growth at 1 µM: 127%
[22]
  growth at 0.1 µM: 94%
[23]
  growth at 0.01 µM: 100%
[24]; read-out: GI50
  GI50: > 75 µM
[24]; [36]
  CC50: > 75 µM
[24]; read-out: TGI
  TGI: > 75 µM
[24]; read-out: pGI50 (converted)
  GI50: > 75.9 µM
[24]; [37]
  CC50: > 75.9 µM
[24]; read-out: pTGI
  TGI: > 75.9 µM
[25]
  growth at 100 µM: 92%
[26]
  growth at 0.1 µM: 62%
[27]
  growth at 1 µM: 89%
[28]
  growth at 0.1 µM: 97%
[29]
  growth at 1 µM: 100%
[30]
  growth at 0.01 µM: 96%
[31]; read-out: GI50
  GI50: > 75 µM
[31]; read-out: LC50
  LC50: > 75 µM
[31]; read-out: TGI
  TGI: > 75 µM
[31]; read-out: pGI50 (converted)
  GI50: > 75.9 µM
[31]; read-out: pLC50 (converted)
  LC50: > 75.9 µM
[31]; read-out: pTGI
  TGI: > 75.9 µM
[32]
  growth at 0.01 µM: 93%
[33]
  growth at 1 µM: 106%
[34]
  growth at 0.1 µM: 94%
[35]
  growth at 0.01 µM: 96%

## CC(=O)Nc1cc(CCl)cc(NC(=O)c2ccc(C(=O)Nc3cccc(NC(=O)CCCN(C)C)c3)cc2)c1
[1]
  growth at 1 µM: 89%
[2]; read-out: GI50
  GI50: > 100 µM
[2]; [36]
  CC50: > 100 µM
[2]; read-out: TGI
  TGI: > 100 µM
[2]; read-out: pGI50 (converted)
  GI50: > 100 µM
[2]; [37]
  CC50: > 100 µM
[2]; read-out: pTGI
  TGI: > 100 µM
[3]; read-out: GI50
  GI50: > 100 µM
[3]; [36]
  CC50: > 100 µM
[3]; read-out: TGI
  TGI: > 100 µM
[3]; read-out: pGI50 (converted)
  GI50: > 100 µM
[3]; [37]
  CC50: > 100 µM
[3]; read-out: pTGI
  TGI: > 100 µM
[4]
  growth at 0.01 µM: 95%
[5]
  growth at 0.1 µM: 87%
[6]
  growth at 1 µM: 88%
[7]
  growth at 0.01 µM: 94%
[8]; read-out: GI50
  GI50: > 100 µM
[8]; read-out: LC50
  LC50 (concentration giving 50% cell kill): > 100 µM
[8]; read-out: TGI
  TGI: > 100 µM
[8]; read-out: pGI50 (converted)
  GI50: > 100 µM
[8]; read-out: pLC50 (converted)
  LC50 (concentration giving 50% cell kill): > 100 µM
[8]; read-out: pTGI
  TGI: > 100 µM
[9]
  growth at 0.01 µM: 105%
[10]
  growth at 0.1 µM: 77%
[11]; read-out: GI50
  GI50: > 100 µM
[11]; [36]
  CC50: > 100 µM
[11]; read-out: TGI
  TGI: > 100 µM
[11]; read-out: pGI50 (converted)
  GI50: > 100 µM
[11]; [37]
  CC50: > 100 µM
[11]; read-out: pTGI
  TGI: > 100 µM
[12]
  growth at 1 µM: 109%
[13]
  growth at 100 µM: 84%
[14]
  growth at 1 µM: 107%
[15]
  growth at 0.01 µM: 103%
[16]
  growth at 1 µM: 101%
[17]
  growth at 100 µM: 97%
[18]
  growth at 1 µM: 109%
[19]
  growth at 1 µM: 95%
[20]
  growth at 1 µM: 96%
[21]
  growth at 1 µM: 70%
[22]
  growth at 0.1 µM: 103%
[23]
  growth at 0.01 µM: 106%
[24]; read-out: GI50
  GI50: > 100 µM
[24]; [36]
  CC50: > 100 µM
[24]; read-out: TGI
  TGI: > 100 µM
[24]; read-out: pGI50 (converted)
  GI50: > 100 µM
[24]; [37]
  CC50: > 100 µM
[24]; read-out: pTGI
  TGI: > 100 µM
[25]
  growth at 100 µM: 85%
[26]
  growth at 0.1 µM: 73%
[27]
  growth at 1 µM: 81%
[28]
  growth at 0.1 µM: 98%
[29]
  growth at 1 µM: 91%
[30]
  growth at 0.01 µM: 99%
[31]; read-out: GI50
  GI50: > 100 µM
[31]; read-out: LC50
  LC50: > 100 µM
[31]; read-out: TGI
  TGI: > 100 µM
[31]; read-out: pGI50 (converted)
  GI50: > 100 µM
[31]; read-out: pLC50 (converted)
  LC50: > 100 µM
[31]; read-out: pTGI
  TGI: > 100 µM
[32]
  growth at 0.01 µM: 90%
[33]
  growth at 1 µM: 104%
[34]
  growth at 0.1 µM: 92%
[35]
  growth at 0.01 µM: 106%
